Experiment [1] relates to MATSS: scented mayweed (Matricaria chamomilla), pineappleweed (Matricaria matricarioides). Kind of experiment: Post-emergent Test III, herbicidal activity in wheat and barley. Particulars: for pest or weed control at 35 g/ha / pest or weed control at 70 g/ha: Matricaria chamomilla, post-emergence, 504 h; for pest or weed control at 35 g/ha: 35 g ai/ha; for pest or weed control at 70 g/ha: 70 g ai/ha; for GR50 MATSS / GR80 MATSS: probit analysis. Format: in vivo. The essentials: (§1)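 Plants at the second to third true-leaf stage, grown in a greenhouse at about 18/17 °C with a 14 h photoperiod, were sprayed post-emergence at 187 L/ha with the high rate and ½× to 1/16× serial dilutions in an acetone/DMSO/crop-oil/surfactant carrier. Injury was rated visually at 21 d on a 0–100% scale, and GR20–GR90 were derived by probit analysis.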

For experiment [2], the system named is KCHSC: kochia (Kochia scoparia). The description is as above. Format: in vivo. As to conditions: for pest or weed control at 35 g/ha / pest or weed control at 70 g/ha: Bassia scoparia, post-emergence, 504 h; for pest or weed control at 35 g/ha: 35 g ai/ha; for pest or weed control at 70 g/ha: 70 g ai/ha; for GR50 KCHSC / GR80 KCHSC: probit analysis. An outline of the steps:
as §1

For experiment [3], the system named is TRZSS: wheat, including spring and winter (Triticum aestivum). The experiment is described as above. Particulars: for pest or weed control at 35 g/ha / pest or weed control at 70 g/ha: Triticum aestivum, post-emergence, 504 h; for pest or weed control at 35 g/ha: 35 g ai/ha; for pest or weed control at 70 g/ha: 70 g ai/ha; for GR20 TRZSS: probit analysis. Format: in vivo. The essentials:
as §1

The subject of experiment [4] is HORSS: barley, including spring and winter (Hordeum vulgare). Described as above. In kind it is in vivo. As to conditions: for pest or weed control at 35 g/ha / pest or weed control at 70 g/ha: Hordeum vulgare, post-emergence, 504 h; for pest or weed control at 35 g/ha: 35 g ai/ha; for pest or weed control at 70 g/ha: 70 g ai/ha; for GR20 HORSS: probit analysis. The essentials: as §1

Experiment [5] concerns SETVI: green foxtail (Setaria viridis). The experiment is described as above. In kind it is in vivo. Particulars: Table 9, 21 d; for pest or weed control at 35 g/ha / pest or weed control at 70 g/ha: Setaria viridis, post-emergence, 504 h, post-emergent, read-out: Visual Growth Reduction (%) 21 Days After Application SETVI; for pest or weed control at 35 g/ha: 35 g ai/ha; for pest or weed control at 70 g/ha: 70 g ai/ha; for GR50 SETVI: dose for 50 percent growth reduction; for GR50 SETVI / GR80 SETVI: probit analysis; for GR80 SETVI: dose for 80 percent growth reduction. The essentials: as §1

Experiment [6] relates to APESV: bentgrass (Apera spica-venti). The experiment is described as above. In kind it is in vivo. As to conditions: for pest or weed control at 35 g/ha / pest or weed control at 70 g/ha: Apera spica-venti, post-emergence, 504 h, read-out: Visual Growth Reduction (%) 21 Days After Application APESV; for pest or weed control at 35 g/ha: 35 g ai/ha; for pest or weed control at 70 g/ha: 70 g ai/ha; for GR50 APESV / GR80 APESV: probit analysis. The essentials:
as §1

Experiment [7] relates to LOLSS: ryegrass including, Italian ryegrass (Lolium multiflorum), rigid ryegrass (Lolium rigidum), annual ryegrass (Lolium multiflorum subsp. Gaudini). Described as above. Format: in vivo. As to conditions: probit analysis. An outline of the steps:
as §1

Test in experiment [8]: as above
Format: in vivo, Lolium multiflorum, Lolium rigidum. Particulars: Lolium multiflorum, post-emergence, 504 h, read-out: Visual Growth Reduction (%) 21 Days After Application LOLSS; for pest or weed control at 35 g/ha: 35 g ai/ha; for pest or weed control at 70 g/ha: 70 g ai/ha. The essentials:
as §1

Experiment [9] deals with LAMSS. The description is as above. Format: in vivo. The essentials:
as §1

Experiment [10] deals with ALOMY: black-grass (Alopecurus myosuroides). The description is as above. Format: in vivo. The essentials: as §1
The mark [11] stands for this setting: 21 days after application, read-out: Visual Gorowth Reduction (%) 21 days After Application MATSS.
Setting [12] is: dose for 50 percent growth reduction, 21 days after application.
Where [13] appears, read: dose for 80 percent growth reduction, 21 days after application.
The mark [14] stands for this setting: 21 days after application, read-out: Visual Gorowth Reduction (%) 21 days After Application KCHSC.
Where [15] appears, read: 21 days after application, read-out: Visual Gorowth Reduction (%) 21 days After Application TRZSS.
The mark [16] stands for this setting: dose for 20 percent growth reduction (crop), 21 days after application.
[17] abbreviates: 21 days after application, read-out: Visual Gorowth Reduction (%) 21 days After Application HORSS.
Where [18] appears, read: Table 9, post-emergent, 21 d, read-out: Visual Growth Reduction (%) 21 Days After Application KCHSC.
Where [19] appears, read: Table 9, dose for 50 percent growth reduction, 21 d.
[20] abbreviates: Table 9, dose for 80 percent growth reduction, 21 d.
Setting [21] is: Table 9, dose for 20 percent growth reduction, 21 d.
Where [22] appears, read: Table 9, post-emergent, 21 d, read-out: Visual Growth Reduction (%) 21 Days After Application TRZSS.
Where [23] appears, read: Table 9, post-emergent, 21 d, read-out: Visual Growth Reduction (%) 21 Days After Application HORSS.
Setting [24] is: read-out: Visual Growth Reduction (%) 21 Days After Application MATSS.
Where [25] appears, read: dose for growth reduction of 50 percent, 21 days after application.
[26] abbreviates: dose for growth reduction of 80 percent, 21 days after application.
Setting [27] is: probit analysis, dose for growth reduction of 50 percent, 21 days after application.
Where [28] appears, read: probit analysis, dose for growth reduction of 80 percent, 21 days after application.
Where [29] appears, read: read-out: Visual Growth Reduction (%) 21 Days After Application KCHSC.

SMILES strings stand for the structures. Where two headings read alike, the source gives them in different places.

In the case of `COC(=O)c1nc(-c2ccc(Br)c(F)c2)c(F)c(N)c1Cl` [Compound 49], the pest or weed control at 35 g/ha fell in the range of 60 to 74% in experiment [1] (setting [11]), 85 to 94% in experiment [2] (setting [14]), 75 to 84% in [3] (setting [15]) and 75 to 84% in [4] (setting [17]). The pest or weed control at 70 g/ha in experiment [1] (setting [11]) fell in the range of 75 to 84%; in experiment [2] (setting [14]) it was 85 to 94%; in experiment [3] (setting [15]), 85 to 94%; in [4] (setting [17]) it was 85 to 94%. For the same molecule, the “GR50 MATSS” value in [1] (setting [12]) was 15 g ai/ha. In addition, the “GR80 MATSS” value in experiment [1] (setting [13]) amounted to 93 g ai/ha. For the same molecule, the “GR50 KCHSC” value in experiment [2] (setting [12]) was found to be 4 g ai/ha. Moreover, in experiment [2] (setting [13]), the “GR80 KCHSC” value was found to be 18 g ai/ha. Also, in experiment [3] (setting [16]), the “GR20 TRZSS” value worked out at 1 g ai/ha. In experiment [4] (setting [16]), the “GR20 HORSS” value came to 1 g ai/ha.

As to `COc1c(N)nc(-c2ccc(C(F)(F)F)c(F)c2F)nc1C(=O)O` [Compound 76], the pest or weed control at 35 g/ha lay within 45 to 59% in experiment [5]; 0 to 29% in experiment [2] (setting [18]); 75 to 84% in [6] (Table 9, post-emergent, 21 d); 75 to 84% in experiment [3] (setting [22]); 60 to 74% in experiment [4] (setting [23]); 30 to 44% in experiment [8] (Table 9, post-emergent, 21 d). Moreover, the pest or weed control at 70 g/ha lay within 60 to 74% in experiment [5]; 45 to 59% in experiment [2] (setting [18]); 85 to 94% in experiment [6] (Table 9, post-emergent, 21 d); 85 to 94% in experiment [3] (setting [22]); 60 to 74% in experiment [4] (setting [23]); 45 to 59% in experiment [8] (Table 9, post-emergent, 21 d). In addition, in experiment [5], the “GR50 SETVI” value worked out at 42 g ai/ha. Moreover, the “GR80 SETVI” value in experiment [5] turned out to be 87 g ai/ha. The “GR50 KCHSC” value in experiment [2] (setting [19]) is recorded as 74 g ai/ha. Further, in experiment [2] (setting [20]), the “GR80 KCHSC” value was 132 g ai/ha. Moreover, the “GR50 APESV” value in experiment [6] (setting [19]) worked out at 27 g ai/ha. Further, the “GR80 APESV” value in experiment [6] (setting [20]) is listed as 52 g ai/ha. Also, the “GR20 TRZSS” value in experiment [3] (setting [21]) is reported as 4 g ai/ha. In experiment [4] (setting [21]), the “GR20 HORSS” value amounted to 6 g ai/ha. Further, the “GR50 LOLSS” value in experiment [7] (setting [19]) came to 53 g ai/ha. The “GR80 LOLSS” value in [7] (setting [20]) amounted to 133 g ai/ha.

As for `Nc1c(F)c(-c2ccc(C(F)(F)F)c(F)c2F)nc(C(=O)O)c1Cl` [Compound 167], the pest or weed control at 35 g/ha in [1] (setting [24]) lay within 75 to 84%; in experiment [9] (post-emergence, 504 h, 35 g ai/ha, read-out: Visual Growth Reduction (%) 21 Days After Application LAMSS) it was 95 to 100%; in experiment [2] (setting [29]), 60 to 74%; in [6], 75 to 84%; in experiment [10] (Alopecurus myosuroides, post-emergence, 504 h, 35 g ai/ha, read-out: Visual Growth Reduction (%) 21 Days After Application ALOMY), 30 to 44%; in experiment [8], 0 to 29%. The pest or weed control at 70 g/ha fell in the range of 85 to 94% in experiment [1] (setting [24]); 95 to 100% in experiment [9] (post-emergence, 504 h, 70 g ai/ha, read-out: Visual Growth Reduction (%) 21 Days After Application LAMSS); 75 to 84% in experiment [2] (setting [29]); 85 to 94% in experiment [6]; 60 to 74% in experiment [10] (Alopecurus myosuroides, post-emergence, 504 h, 70 g ai/ha, read-out: Visual Growth Reduction (%) 21 Days After Application ALOMY); 0 to 29% in experiment [8]. In addition, in [1] (setting [25]), the “GR50 MATSS” value is on record as 24 g ai/ha. Besides, in experiment [1] (setting [26]), the “GR80 MATSS” value is 48 g ai/ha. Also, in experiment [9] (setting [27]), the “GR50 LAMSS” value is 1 g ai/ha. Further, the “GR80 LAMSS” value in experiment [9] (setting [28]) worked out at 1 g ai/ha. Also, the “GR50 KCHSC” value in experiment [2] (setting [25]) is recorded as 23 g ai/ha. In addition, the “GR80 KCHSC” value in [2] (setting [26]) stood at 52 g ai/ha. In addition, the “GR50 APESV” value in experiment [6] (setting [25]) came out at 20 g ai/ha. Moreover, the “GR80 APESV” value in experiment [6] (setting [26]) came to 46 g ai/ha. Besides, the “GR50 ALOMY” value in experiment [10] (setting [27]) came out at 57 g ai/ha. Besides, the “GR80 ALOMY” value in [10] (setting [28]) is 119 g ai/ha. In addition, the “GR50 LOLSS” value in [7] (setting [25]) was greater than 140 g ai/ha. For the same molecule, the “GR80 LOLSS” value in experiment [7] (setting [26]) is listed as greater than 140 g ai/ha.

`Nc1cc(-c2ccc(C(F)(F)F)c(F)c2F)nc(C(=O)O)c1Cl` [Compound 172, 4-amino-3-chloro-6-(2,3-difluoro-4-(trifluoromethyl)phenyl)picolinic acid]: the pest or weed control at 35 g/ha is 60 to 74% in [5]; 60 to 74% in experiment [2] (setting [18]); 30 to 44% in [6] (Table 9, post-emergent, 21 d); 75 to 84% in [3] (setting [22]); 60 to 74% in experiment [4] (setting [23]); 0 to 29% in experiment [8] (Table 9, post-emergent, 21 d). Besides, the pest or weed control at 70 g/ha is 75 to 84% in experiment [5]; 60 to 74% in experiment [2] (setting [18]); 60 to 74% in experiment [6] (Table 9, post-emergent, 21 d); 75 to 84% in experiment [3] (setting [22]); 60 to 74% in experiment [4] (setting [23]); 0 to 29% in [8] (Table 9, post-emergent, 21 d). Besides, the “GR50 SETVI” value in experiment [5] amounted to 25 g ai/ha. In addition, the “GR80 SETVI” value in experiment [5] is recorded as 56 g ai/ha. In addition, in experiment [2] (setting [19]), the “GR50 KCHSC” value was found to be 38 g ai/ha. Moreover, the “GR80 KCHSC” value in [2] (setting [20]) is listed as 73 g ai/ha. Moreover, the “GR50 APESV” value in experiment [6] (setting [19]) is 53 g ai/ha. Besides, the “GR80 APESV” value in [6] (setting [20]) is listed as 124 g ai/ha. Moreover, the “GR20 TRZSS” value in [3] (setting [21]) is reported as 1 g ai/ha. Moreover, the “GR20 HORSS” value in [4] (setting [21]) is 3 g ai/ha. In addition, the “GR50 LOLSS” value in experiment [7] (setting [19]) was greater than 140 g ai/ha. For the same molecule, in [7] (setting [20]), the “GR80 LOLSS” value is reported as greater than 140 g ai/ha.
